Blank lines part the entries; values can stand above or below the compound they belong to.
Experiments:
herpesvirus [1] = experiment: Inhibition studies of herpesvirus replication by the compounds exemplified; assay type: cell-based; details: summary table, read-out: ED50 (the source's name)
Experimental: (§1) The following procedures were then used to determine inhibitory effects of the compound of example 1 on the replication of HSV-1, strain F. First, confluent monolayers of the African green monkey kidney cell line, Vero (ATCC 733-VR CCL 81) in 24 well cell culture plates were pretreated with specified concentrations (0 μM, 0.5 μM, 1 μM, 5 μM, 10 μM, 20 μM and 50 μM) of ALX-19 at 37° C., 5% CO2 for 24 hours. This was accomplished by diluting the stock solution of the test compound in growth medium (10% fetal bovine serum, 100 IU/ml penicillin, 100 μg/ml streptomycin and 0.02 mg/ml gentamicin in Dulbecco's MEM (DMEM)) used to overlay the monolayers.
(§2) After pretreatment with the test compound, the monolayers were overlaid with 0.1 ml of diluted virus stock at about 20 pfu/well. Virus was then allowed to absorb for 1 hours at 37° C. The virus inoculum was removed and the monolayers were overlaid with DMEM containing 2% FBS and the specified concentrations of the test compound. Virus was next allowed to replicate for 48 hours and then the monolayers were fixed and stained with a solution of 1% crystal violet in 70% ethanol:formalin:acetic acid (20:2:1). Finally, plaques (each representing a single infectious virus particule or plaque forming unit (PFU) were counted and checked microscopically. The results were as follows:
(§3) A procedure similar to that described in Example 3 was conducted to determine the anti-viral activity of the compound of example 2. In the case, however, the concentrations of the test compound used to pretreat the MRC-5 cells were 0 μM, 1 μM, 10 μM, 100 μM and 500 μM, respectively. The following results were obtain on infection and incubation of the treated cells:
The following table illustrates results obtained in inhibition and cytotoxicity studies of herpesvirus replication by the compounds exemplified.

herpesvirus [2] = assay type: cell-based
Experimental: The therapeutic index of this compound, i.e. the ratio of its cytotoxicity to its viral toxicity, was determined to be 12.29. The following table illustrates results obtained in inhibition and cytotoxicity studies of herpesvirus replication by the compounds exemplified.

HSV-1, strain F = experiment: Plaque reduction assay, inhibition of HSV-1 strain F replication by the compound of example 1 (Vero cells); assay type: cell-based, herpes simplex virus type 1; details: for Plaque number: Vero, 24 h pretreatment, 48 h, untreated 19
From the text: (§4) The present invention provides novel di-guanidino-substituted compounds having anti-herpesvirus activity. The term "anti-herpesvirus" as used herein refers to those compounds which inhibit replication of a member of the herpesvirus family as determined by conventional cell culture assay, such as the well established plaque reduction assay. In the context of the plaque reduction assay, for example, the anti-herpesvirus nature of a compound in accordance with the present invention is indicated by a reduction in plaque count, or a reduction in plaque size, following treatment of virally infected cells with the given compound, relative to a virally infected, untreated control.
The compound of example 1 was formulated as a 10 mM stock in water for in vitro and cell culture procedures. The stock was then diluted into buffers used for specific assays, or into cell culture media.
as §1
as §2, with “follows: […]” for “follows:”

herpes simplex virus = experiment: Plaque reduction assay, inhibition of herpesvirus replication by the compound of example 2 (MRC-5 cells); assay type: cell-based; details: for Plaque number: untreated 19
From the text: as §4, §1, §2
as §3, with “cells: […]” for “cells:”

EC50 (herpesvirus [1]): 2.6 µM
TI (herpesvirus [2]): 12.29
IC50 (HSV-1, strain F; Human alphaherpesvirus 1, HSV-1 strain F, Vero cells, plaque reduction): 2.6 µM
SMILES: COC1CC[C@H](OCCCNC(=N)N)[C@@H](COCCCNC(=N)N)O1 (stereo partly drawn) [Example 1, Methyl-4,6-di-O-propylguanidine-2,3-dideoxy-α,β-D-erythro-hexoside]
therapeutic index, ratio of cytotoxicity to viral toxicity (herpesvirus [2]): 12.29
Plaque number (HSV-1, strain F; 0.5 μM, HSV-1 strain F): 18
Plaque number (HSV-1, strain F; 1 μM, HSV-1 strain F): 16
Plaque number (HSV-1, strain F; 5 μM, HSV-1 strain F): 6
Plaque number (HSV-1, strain F; 10 μM, HSV-1 strain F): 4
Plaque number (HSV-1, strain F; 20 μM, HSV-1 strain F): 1
reduction in the replication of herpes simplex virus (HSV-1, strain F; concentration of more than 1 μM): significant reduction

EC50 (herpesvirus [1]): 10.5 µM
TI (herpesvirus [2]): > 50
SMILES: N=C(N)NCCCOC[C@H]1OC(OCCCNC(=N)N)CC[C@@H]1OCCCNC(=N)N (stereo partly drawn) [Example 2, 1,4,6-tri-O-propylguanidine-2,3-dideoxy-hexoside]
therapeutic index, ratio of cytotoxicity to viral toxicity (herpesvirus [2]): > 50
Plaque number (herpes simplex virus; 0.5 μM, MRC-5 cells): 18
Plaque number (herpes simplex virus; 1 μM, MRC-5 cells): 16
Plaque number (herpes simplex virus; 5 μM, MRC-5 cells): 11
Plaque number (herpes simplex virus; 10 μM, MRC-5 cells): 9
Plaque number (herpes simplex virus; 20 μM, MRC-5 cells): 6
Plaque number (herpes simplex virus; 50 μM, MRC-5 cells): 5
EC50 (herpes simplex virus; MRC5, MRC-5 cells, plaque reduction, read-out: ED50 (the source's name)): 10.5 µM
reduction in the replication of herpes simplex virus (herpes simplex virus; concentration of 1 μM or more): significant reduction

EC50 (herpesvirus [1]): 2.5 µM
TI (herpesvirus [2]): 9.96
SMILES: CCOC1CC[C@H](OCCCNC(=N)N)[C@@H](COCCCNC(=N)N)O1 (stereo partly drawn) [Example 5, ethyl-4,6-di-O-propylguanidine-2,3-dideoxy-hexoside]

EC50 (herpesvirus [1]): 9.3 µM
TI (herpesvirus [2]): 17.28
SMILES: CCOC1CC[C@H](OCCCCCNC(=N)N)[C@@H](COCCCCCNC(=N)N)O1 (stereo partly drawn) [Example 6, ethyl-4,6-di-O-pentylguanidine-2,3-dideoxy-hexoside]

EC50 (herpesvirus [1]): 6.45 µM
TI (herpesvirus [2]): 5.17
SMILES: CC(C)OC1CC[C@H](OCCCCCNC(=N)N)[C@@H](COCCCCCNC(=N)N)O1 (stereo partly drawn) [Example 7, isopropyl-4,6-di-O-pentylguanidine-2,3-dideoxy-D-erythro-hexoside]

EC50 (herpesvirus [1]): 10 µM
TI (herpesvirus [2]): > 20
SMILES: CCOCCOCCOC1CC[C@H](OCCCNC(=N)N)[C@@H](COCCCNC(=N)N)O1 (stereo partly drawn) [Example 8, (ethoxy-ethoxy-ethyl)-4,6-di-O-propylguanidine-2,3-dideoxy-d-erythrohexoside]

EC50 (herpesvirus [1]): ~50 µM
TI (herpesvirus [2]): ~ 350
SMILES: N=C(N)NCCCOC[C@H]1OCCC[C@@H]1OCCCNC(=N)N [Example 9, 4,6-di-O-propylguanidine-3-deoxy dihydro-D-glucal]

EC50 (herpesvirus [1]): 10.8 µM
TI (herpesvirus [2]): 31.22
SMILES: N=C(N)NCCCOC[C@H]1OC(OCCO)CC[C@@H]1OCCCNC(=N)N (stereo partly drawn) [Example 10, hydroxyethyl-4,6-di-O-propylguanidine-2,3-dideoxy-hexoside]

From patent US5627194A, “Anti-viral guanidino-substituted compounds” (Allelix Biopharmaceuticals Inc., priority 1994, dated 1997)
